Data as given in US20240043386A1, “Modulators of the Cystic Fibrosis Transmembrane Conductance Regulator Protein and Methods of Use” (AbbVie Global Enterprises Ltd., priority 2021, published 2024).

The compounds below were run against T1, F508del/F508del CFTR (Homo sapiens, UniProt P13569, DEL508-508) (assay: Trans-Epithelial Current Clamp (TECC) assay using primary human bronchial epithelial cells). Settings: maximum percent activity relative to positive control (co-corrector 0.15 μM + potentiator 0.45 μM = 100%); primary hBE cells F508del/F508del.
T1 construct: cells isolated from CF patients with the homozygous mutation; endogenous in cells; host or cells: primary human bronchial epithelial (hBE) cells from CF patients homozygous for F508del
T1 sequence (P13569 with tags, fused parts or gaps DEL508-508): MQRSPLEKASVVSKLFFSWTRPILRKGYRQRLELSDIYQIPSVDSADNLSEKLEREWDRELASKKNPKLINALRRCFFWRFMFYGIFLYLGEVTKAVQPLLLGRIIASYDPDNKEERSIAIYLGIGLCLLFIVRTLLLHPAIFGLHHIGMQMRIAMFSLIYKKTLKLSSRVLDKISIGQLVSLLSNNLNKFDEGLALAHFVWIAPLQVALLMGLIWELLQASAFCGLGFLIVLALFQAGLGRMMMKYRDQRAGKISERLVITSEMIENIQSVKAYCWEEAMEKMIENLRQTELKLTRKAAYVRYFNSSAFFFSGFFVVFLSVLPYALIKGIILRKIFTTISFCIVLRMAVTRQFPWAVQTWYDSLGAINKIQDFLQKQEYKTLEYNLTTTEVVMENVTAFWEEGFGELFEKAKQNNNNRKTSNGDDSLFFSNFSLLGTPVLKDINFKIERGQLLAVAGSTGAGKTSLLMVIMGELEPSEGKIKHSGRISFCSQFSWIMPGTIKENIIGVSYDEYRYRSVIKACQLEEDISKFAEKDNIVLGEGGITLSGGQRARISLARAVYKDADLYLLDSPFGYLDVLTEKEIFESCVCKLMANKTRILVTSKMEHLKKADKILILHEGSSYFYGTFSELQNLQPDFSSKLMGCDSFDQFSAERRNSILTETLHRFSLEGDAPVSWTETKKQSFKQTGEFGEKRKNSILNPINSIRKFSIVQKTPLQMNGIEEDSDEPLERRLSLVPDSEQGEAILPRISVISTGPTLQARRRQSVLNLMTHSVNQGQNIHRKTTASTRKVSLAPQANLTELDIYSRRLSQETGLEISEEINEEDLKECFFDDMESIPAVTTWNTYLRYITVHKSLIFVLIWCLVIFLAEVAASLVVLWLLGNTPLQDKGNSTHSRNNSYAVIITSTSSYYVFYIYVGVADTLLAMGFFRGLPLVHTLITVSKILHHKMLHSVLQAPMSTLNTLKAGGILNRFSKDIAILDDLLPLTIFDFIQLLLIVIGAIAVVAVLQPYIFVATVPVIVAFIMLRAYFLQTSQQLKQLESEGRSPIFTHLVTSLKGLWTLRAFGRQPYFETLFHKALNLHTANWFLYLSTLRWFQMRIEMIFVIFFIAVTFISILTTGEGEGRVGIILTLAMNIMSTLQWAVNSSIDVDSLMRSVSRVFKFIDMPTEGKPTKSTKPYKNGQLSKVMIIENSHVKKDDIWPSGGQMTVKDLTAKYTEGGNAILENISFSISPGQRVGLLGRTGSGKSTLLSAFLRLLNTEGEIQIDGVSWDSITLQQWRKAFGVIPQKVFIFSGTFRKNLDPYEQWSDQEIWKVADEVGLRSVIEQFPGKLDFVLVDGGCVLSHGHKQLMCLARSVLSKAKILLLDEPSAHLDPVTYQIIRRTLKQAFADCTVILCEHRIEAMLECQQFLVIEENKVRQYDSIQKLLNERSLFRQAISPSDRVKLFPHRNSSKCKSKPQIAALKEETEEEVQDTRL
Type: cell-based
Summary of the method: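 Readout is the equivalent CFTR current (IEQ, from offset-corrected VT and RT) plus AUC from forskolin peak to bumetanide addition, recorded on TECC-24 at 36.5° C. Beforehand, homozygous F508del hBE cultures received correctors with co-corrector and potentiator basolaterally for 18-24 h at 37° C.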

Row | Emax (% Dual) | SMILES
1 | 360 | COc1ccc(C)cc1[C@]1(C(=O)NS(=O)(=O)c2cccc3nc(C)ccc23)C[C@@H]1c1ccccc1 (single isomer, unassigned) [Example 3]
2 | 378 | COc1ccc(C)cc1[C@@]1(C(=O)NS(=O)(=O)c2cccc3nc(C)ccc23)C[C@H]1c1ccc(C)cc1 (single isomer, unassigned) [Example 6]
3 | 487 | COc1ccc(C)cc1[C@]1(C(=O)NS(=O)(=O)c2cccc3nc(C)ccc23)C[C@@H]1c1ccc(C)cc1 (single isomer, unassigned) [Example 7]
4 | 308 | COc1ccc([C@@H]2C[C@]2(C(=O)NS(=O)(=O)c2cccc3nc(C)ccc23)c2cc(C)ccc2OC)cc1 (single isomer, unassigned) [Example 16]
5 | 296 | COc1ccc([C@@H]2C[C@]2(C(=O)NS(=O)(=O)c2cccc3nc(C)ccc23)c2cc(C)ccc2OC)cc1 (single isomer, unassigned) [Example 17]
6 | 270 | COc1ccc(C)cc1[C@]1(C(=O)NS(=O)(=O)c2cccc3nc(C)ccc23)C[C@@H]1c1ccc(C(F)(F)F)cc1 (single isomer, unassigned) [Example 18]
7 | 215 | COc1ccc(C)cc1[C@@]1(C(=O)NS(=O)(=O)c2cccc3nc(C)ccc23)C[C@H]1c1ccc(C(F)(F)F)cc1 (single isomer, unassigned) [Example 19]
8 | 250 | COc1ccc(C)cc1[C@@]1(C(=O)NS(=O)(=O)c2cccc3nc(C)ccc23)C[C@H]1c1cccc(F)c1 (single isomer, unassigned) [Example 20]
9 | 213 | COc1ccc(C)cc1[C@@]1(C(=O)NS(=O)(=O)c2cccc3nc(C)ccc23)C[C@H]1c1cccc(F)c1 (single isomer, unassigned) [Example 21]
10 | 294 | COc1ccc(C)cc1[C@]1(C(=O)NS(=O)(=O)c2cccc3nc(C)ccc23)C[C@@H]1c1cccc(C(F)(F)F)c1 (single isomer, unassigned) [Example 23]
11 | 286 | COc1ccc(C)cc1[C@@]1(C(=O)NS(=O)(=O)c2cccc3nc(C)ccc23)C[C@H]1c1cccc(C(F)(F)F)c1 (single isomer, unassigned) [Example 24]
12 | 305 | COc1ccc(C)cc1[C@]1(C(=O)NS(=O)(=O)c2cccc3nc(C)ccc23)C[C@@H]1c1ccccc1F (single isomer, unassigned) [Example 25]
13 | 293 | COc1ccc(C)cc1[C@@]1(C(=O)NS(=O)(=O)c2cccc3nc(C)ccc23)C[C@H]1c1ccccc1F (single isomer, unassigned) [Example 26]

Same assay, conditions: primary hBE cells homozygous F508del/F508del; test C2 corrector with co-corrector and potentiator, 18-24 hours at 37° C.; equivalent CFTR current (IEQ)/AUC

Row | EC50 [µM] | SMILES
14 | 0.000992 | COc1ccc(C)cc1[C@]1(C(=O)NS(=O)(=O)c2cccc3nc(C)ccc23)C[C@@H]1c1ccccc1 (single isomer, unassigned) [Example 3]
15 | 0.0053 | COc1ccc(C)cc1[C@@]1(C(=O)NS(=O)(=O)c2cccc3nc(C)ccc23)C[C@H]1c1ccc(C)cc1 (single isomer, unassigned) [Example 6]
16 | 0.0008 | COc1ccc(C)cc1[C@]1(C(=O)NS(=O)(=O)c2cccc3nc(C)ccc23)C[C@@H]1c1ccc(C)cc1 (single isomer, unassigned) [Example 7]
17 | 0.0084 | COc1ccc([C@@H]2C[C@]2(C(=O)NS(=O)(=O)c2cccc3nc(C)ccc23)c2cc(C)ccc2OC)cc1 (single isomer, unassigned) [Example 16]
18 | 0.00066 | COc1ccc([C@@H]2C[C@]2(C(=O)NS(=O)(=O)c2cccc3nc(C)ccc23)c2cc(C)ccc2OC)cc1 (single isomer, unassigned) [Example 17]
19 | 0.0013 | COc1ccc(C)cc1[C@]1(C(=O)NS(=O)(=O)c2cccc3nc(C)ccc23)C[C@@H]1c1ccc(C(F)(F)F)cc1 (single isomer, unassigned) [Example 18]
20 | 0.0096 | COc1ccc(C)cc1[C@@]1(C(=O)NS(=O)(=O)c2cccc3nc(C)ccc23)C[C@H]1c1ccc(C(F)(F)F)cc1 (single isomer, unassigned) [Example 19]
21 | 0.001 | COc1ccc(C)cc1[C@@]1(C(=O)NS(=O)(=O)c2cccc3nc(C)ccc23)C[C@H]1c1cccc(F)c1 (single isomer, unassigned) [Example 20]
22 | 0.002 | COc1ccc(C)cc1[C@@]1(C(=O)NS(=O)(=O)c2cccc3nc(C)ccc23)C[C@H]1c1cccc(F)c1 (single isomer, unassigned) [Example 21]
23 | 0.0062 | COc1ccc(C)cc1[C@]1(C(=O)NS(=O)(=O)c2cccc3nc(C)ccc23)C[C@@H]1c1cccc(C(F)(F)F)c1 (single isomer, unassigned) [Example 23]
24 | 0.002 | COc1ccc(C)cc1[C@@]1(C(=O)NS(=O)(=O)c2cccc3nc(C)ccc23)C[C@H]1c1cccc(C(F)(F)F)c1 (single isomer, unassigned) [Example 24]
25 | 0.0043 | COc1ccc(C)cc1[C@]1(C(=O)NS(=O)(=O)c2cccc3nc(C)ccc23)C[C@@H]1c1ccccc1F (single isomer, unassigned) [Example 25]
26 | 0.0028 | COc1ccc(C)cc1[C@@]1(C(=O)NS(=O)(=O)c2cccc3nc(C)ccc23)C[C@H]1c1ccccc1F (single isomer, unassigned) [Example 26]

These compounds were tested against T2, F508delCFTR (Homo sapiens, UniProt P13569, DEL508-508) (assay: Cell Surface Expression-Horse Radish Peroxidase (CSE-HRP) assay in CFBE41o-F508delCFTR-HRP cells). Settings: with co-corrector (2 μM); CFBE41o-F508delCFTR-HRP cells, 18-24 hours at 33° C., luminescence; read-out: EC50 (with co-corrector).
T2 construct: expressed in transfected cells; host or cells: CFBE41o- human lung-derived epithelial cell line, doxycycline-inducible expression
T2 sequence (P13569 with tags, fused parts or gaps DEL508-508): as above
Type: cell-based
Summary of the method: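 Test compounds were tested alone or alongside a co-corrector (2 μM), 8-point 3-fold series from 20 or 30 μM, for 18–24 h at 33 °C on doxycycline-induced CFBE41o-F508delCFTR-HRP cells. After washing, luminol luminescence reported cell-surface HRP-tagged CFTR, normalized to the positive control (% activity). EC50 was fitted with a variable Hill slope sigmoid from triplicate plates; Z′ >0.5 required.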

Row | EC50 [µM] | SMILES
27 | 0.994 | COc1ccc(C)cc1[C@]1(C(=O)NS(=O)(=O)c2cccc3nc(C)ccc23)C[C@@H]1c1ccccc1 (single isomer, unassigned) [Example 3]
28 | 0.202 | COc1ccc(C)cc1[C@@]1(C(=O)NS(=O)(=O)c2cccc3nc(C)ccc23)C[C@H]1c1ccc(C)cc1 (single isomer, unassigned) [Example 6]
29 | 0.926 | COc1ccc(C)cc1[C@]1(C(=O)NS(=O)(=O)c2cccc3nc(C)ccc23)C[C@@H]1c1ccc(C)cc1 (single isomer, unassigned) [Example 7]
30 | 0.393 | COc1ccc([C@@H]2C[C@]2(C(=O)NS(=O)(=O)c2cccc3nc(C)ccc23)c2cc(C)ccc2OC)cc1 (single isomer, unassigned) [Example 16]
31 | 0.588 | COc1ccc(C)cc1[C@@]1(C(=O)NS(=O)(=O)c2cccc3nc(C)ccc23)C[C@H]1c1ccc(C(F)(F)F)cc1 (single isomer, unassigned) [Example 19]
32 | 0.203 | COc1ccc(C)cc1[C@@]1(C(=O)NS(=O)(=O)c2cccc3nc(C)ccc23)C[C@H]1c1cccc(F)c1 (single isomer, unassigned) [Example 20]
33 | 0.506 | COc1ccc(C)cc1[C@@]1(C(=O)NS(=O)(=O)c2cccc3nc(C)ccc23)C[C@H]1c1cccc(F)c1 (single isomer, unassigned) [Example 21]
34 | 0.259 | COc1ccc(C)cc1[C@]1(C(=O)NS(=O)(=O)c2cccc3nc(C)ccc23)C[C@@H]1c1cccc(C(F)(F)F)c1 (single isomer, unassigned) [Example 23]
35 | 0.201 | COc1ccc(C)cc1[C@@]1(C(=O)NS(=O)(=O)c2cccc3nc(C)ccc23)C[C@H]1c1cccc(C(F)(F)F)c1 (single isomer, unassigned) [Example 24]
36 | 0.388 | COc1ccc(C)cc1[C@]1(C(=O)NS(=O)(=O)c2cccc3nc(C)ccc23)C[C@@H]1c1ccccc1F (single isomer, unassigned) [Example 25]
37 | 0.337 | COc1ccc(C)cc1[C@@]1(C(=O)NS(=O)(=O)c2cccc3nc(C)ccc23)C[C@H]1c1ccccc1F (single isomer, unassigned) [Example 26]

Same assay, conditions: without co-corrector; CFBE41o-F508delCFTR-HRP cells, 18-24 hours at 33° C., luminescence; read-out: EC50 (without co-corrector)

Row | EC50 [µM] | SMILES
38 | 2.45 | COc1ccc(C)cc1[C@]1(C(=O)NS(=O)(=O)c2cccc3nc(C)ccc23)C[C@@H]1c1ccccc1 (single isomer, unassigned) [Example 3]
39 | 0.187 | COc1ccc(C)cc1[C@@]1(C(=O)NS(=O)(=O)c2cccc3nc(C)ccc23)C[C@H]1c1ccc(C)cc1 (single isomer, unassigned) [Example 6]
40 | 1.45 | COc1ccc(C)cc1[C@]1(C(=O)NS(=O)(=O)c2cccc3nc(C)ccc23)C[C@@H]1c1ccc(C)cc1 (single isomer, unassigned) [Example 7]
41 | 0.328 | COc1ccc([C@@H]2C[C@]2(C(=O)NS(=O)(=O)c2cccc3nc(C)ccc23)c2cc(C)ccc2OC)cc1 (single isomer, unassigned) [Example 16]
42 | 2.38 | COc1ccc([C@@H]2C[C@]2(C(=O)NS(=O)(=O)c2cccc3nc(C)ccc23)c2cc(C)ccc2OC)cc1 (single isomer, unassigned) [Example 17]
43 | 0.198 | COc1ccc(C)cc1[C@]1(C(=O)NS(=O)(=O)c2cccc3nc(C)ccc23)C[C@@H]1c1ccc(C(F)(F)F)cc1 (single isomer, unassigned) [Example 18]
44 | 1.01 | COc1ccc(C)cc1[C@@]1(C(=O)NS(=O)(=O)c2cccc3nc(C)ccc23)C[C@H]1c1ccc(C(F)(F)F)cc1 (single isomer, unassigned) [Example 19]
45 | 0.244 | COc1ccc(C)cc1[C@@]1(C(=O)NS(=O)(=O)c2cccc3nc(C)ccc23)C[C@H]1c1cccc(F)c1 (single isomer, unassigned) [Example 20]
46 | 1.09 | COc1ccc(C)cc1[C@@]1(C(=O)NS(=O)(=O)c2cccc3nc(C)ccc23)C[C@H]1c1cccc(F)c1 (single isomer, unassigned) [Example 21]
47 | 0.327 | COc1ccc(C)cc1[C@]1(C(=O)NS(=O)(=O)c2cccc3nc(C)ccc23)C[C@@H]1c1cccc(C(F)(F)F)c1 (single isomer, unassigned) [Example 23]
48 | 0.583 | COc1ccc(C)cc1[C@@]1(C(=O)NS(=O)(=O)c2cccc3nc(C)ccc23)C[C@H]1c1cccc(C(F)(F)F)c1 (single isomer, unassigned) [Example 24]
49 | 1.01 | COc1ccc(C)cc1[C@]1(C(=O)NS(=O)(=O)c2cccc3nc(C)ccc23)C[C@@H]1c1ccccc1F (single isomer, unassigned) [Example 25]
50 | 0.368 | COc1ccc(C)cc1[C@@]1(C(=O)NS(=O)(=O)c2cccc3nc(C)ccc23)C[C@H]1c1ccccc1F (single isomer, unassigned) [Example 26]

Same assay, conditions: without co-corrector; normalized to on-plate positive control corrector (2 μM)

Row | Maximum % activity (without co-corrector) [%] | SMILES
51 | 982 | COc1ccc(C)cc1[C@@]1(C(=O)NS(=O)(=O)c2cccc3nc(C)ccc23)C[C@H]1c1ccc(C)cc1 (single isomer, unassigned) [Example 6]
52 | 515 | COc1ccc(C)cc1[C@@]1(C(=O)NS(=O)(=O)c2cccc3nc(C)ccc23)C[C@H]1c1ccccc1F (single isomer, unassigned) [Example 26]

Same assay, conditions: without co-corrector; normalized to on-plate positive control corrector (2 μM); 2 µM

Row | Maximum % activity (without co-corrector) [%] | SMILES
53 | 784 | COc1ccc([C@@H]2C[C@]2(C(=O)NS(=O)(=O)c2cccc3nc(C)ccc23)c2cc(C)ccc2OC)cc1 (single isomer, unassigned) [Example 16]
54 | 716 | COc1ccc(C)cc1[C@@]1(C(=O)NS(=O)(=O)c2cccc3nc(C)ccc23)C[C@H]1c1cccc(F)c1 (single isomer, unassigned) [Example 20]
